This assay concerns the target human HPK1 (MAP4K1) (Homo sapiens (Human), UniProt Q92918). The assay is described as follows: HPK1 IC50 Assay (TR-FRET biochemical kinase assay, STK S1 peptide substrate). The settings on record: recombinant human HPK1 kinase domain 0.15 nM, 10 μM ATP, 1 μM STK S1 peptide. As for the experimental part: The enzymatic activity of human HPK1 (MAP4K1) was monitored in a biochemical assay in the presence or absence of compounds and using a synthetic peptide substrate. An increase in phosphorylation of the peptide by HPK1 was indicative of its kinase activity.
Recombinant HPK1 kinase domain produced via baculovirus infection of insect cells was obtained from Proteros (Proteros Biostructures #PR-0322) and was pre-activated in the presence of 2 mM ATP (Sigma-Aldrich, cat #GE27-2056-01) and 2 mM magnesium chloride for 16 hours at 4° C. The protein reaction mixture was then loaded to a desalting column (Thermo Fisher Scientific, Cat #89889) to remove excess ATP. HPK1 was eluted with buffer containing 20 mM Tris (2-Amino-2-(hydroxymethyl)propane-1,3-diol) pH 8.0, 150 mM NaCl, 2 mM dithiothreitol and 5% glycerol, and was frozen at −80° C. for later use.
Ten nanoliters of test compounds dissolved in DMSO at various concentrations were dispensed into a 384-well ProxiPlate (PerkinElmer #6008289). Five microliters of a solution of recombinant HPK1 diluted in HPK1 kinase assay buffer (50 mM BES [N,N-Bis(2-hydroxyethyl)-2-aminoethanesulfonic acid], pH 7.0; 10 mM magnesium chloride; 0.01% Triton X-100; 1 mM dithiothreitol; 0.01% bovine serum albumin; 0.1 mM sodium orthovanadate) was added to the compound-containing plate and was incubated for 15 minutes at 25° C. Five microliters of a mixture of ATP (Sigma-Aldrich #A6559) and peptide substrate STK S1 (Cisbio #61ST1BLC) diluted in HPK1 kinase assay buffer was then added to start the reaction. Final concentrations were 0.15 nM for HPK1, 10 μM for ATP, and 1 μM for the STK S1 peptide substrate. The reaction mixture was incubated at 25° C. for 3 hours and was stopped with the addition of 10 μl of an EDTA (Ethylenediaminetetraacetic acid)-containing detection buffer (Cisbio #62SDBRDF) supplemented with Europium cryptate-labeled anti-phospho-serine/threonine antibodies (Cisbio #62ST1PEJ) and XL665-labeled streptavidin (Cisbio #610SAXLG). The mixture was incubated for 16 hours at room temperature and peptide phosphorylation was measured by time-resolved fluorescence energy transfer (665 nm/620 nm) on an Envision plate reader (PerkinElmer).
Data in Table 1 were normalized based on positive (staurosporine) and negative (DMSO) controls. Least squares curve fittings were performed using a four-parameter variable slope nonlinear regression model. IC50 is defined as the concentration of compound required to inhibit 50% of maximum phosphorylation. IC50 values from multiple experiments were averaged by geometric mean and the standard deviation was calculated.
In general terms: In TR-FRET formats the signal depends on donor and acceptor labels being close together.

Where [1] appears, read: geometric mean of multiple experiments.

In general, IC50 refers to the concentration that gives 50% inhibition.

Chain of human HPK1 (MAP4K1) (Q92918 17-274): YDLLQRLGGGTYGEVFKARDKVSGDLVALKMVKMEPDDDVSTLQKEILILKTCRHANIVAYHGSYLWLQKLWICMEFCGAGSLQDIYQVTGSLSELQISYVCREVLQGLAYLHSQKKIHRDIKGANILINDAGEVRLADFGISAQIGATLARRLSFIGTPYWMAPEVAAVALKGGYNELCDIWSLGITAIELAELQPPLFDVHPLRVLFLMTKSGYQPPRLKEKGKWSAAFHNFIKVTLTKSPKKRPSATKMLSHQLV

For `CC(=O)N1CCC2(CC1)C(=O)N([C@H]1C[C@@H](N3CCCCC3)C1)c1cc(-c3cc4ncn(C(C)C)c4c(Nc4cc(CO)ncc4F)n3)ccc12` [Example 98], the 50% inhibitory concentration (IC50) (geometric mean) stood at 1 nM. The same measure, in the same setting: to `CC(C)n1cnc2cc(-c3ccc4c(c3)N([C@H]3C[C@@H](N5CCCCC5)C3)C(=O)C43CCN(C(=O)C4COC4)CC3)nc(Nc3ccncc3F)c21` [Example 144] belongs 0.3 nM; to `CC(C)n1cnc2cc(-c3ccc4c(c3)N([C@H]3C[C@@H](N5CC6CCC(C6)C5)C3)C(=O)C43CCN(C(=O)C4COC4)CC3)nc(Nc3ccncc3F)c21` [Example 124], 0.07 nM. Regarding `CC(C)n1cnc2cc(-c3ccc4c(c3)N([C@H]3C[C@@H](N5CCCCC5)C3)C(=O)C43CCN(C(=O)C4CCO4)CC3)nc(Nc3ccncc3F)c21` (stereo partly drawn) [Example 22], the IC50 under setting [1] came out at 0.3 nM. On to `CC(=O)N1CCC2(CC1)C(=O)N([C@H]1C[C@@H](N3CCC(C)(C)C3)C1)c1cc(-c3cc4ncn(C(C)C)c4c(Nc4cc(C)ncc4F)n3)ccc12` [Example 173], for which the concentration for half-maximal inhibition (IC50) (geometric mean) amounted to 0.4 nM.

Regarding `CC(C)n1cnc2cc(-c3ccc4c(c3)N([C@H]3C[C@@H](N5CCC(C)(C)C5)C3)C(=O)C43CCN(C(=O)C4(CO)CC4)CC3)nc(Nc3ccncc3F)c21` [Example 135], for the setting “geometric mean”, the IC50 is 0.4 nM.

Consider `CC(C)n1cnc2cc(-c3ccc4c(c3)N([C@H]3C[C@@H](N5CCCCC5)C3)C(=O)C4(C)O)nc(Nc3ccncc3F)c21` (stereo partly drawn) [Example 55, 6-(4-((3-fluoropyridin-4-yl)amino)-3-isopropyl-3H-imidazo[4,5-c]pyridin-6-yl)-3-hydroxy-3-methyl-1-((1s,3s)-3-(piperidin-1-yl)cyclobutyl)indolin-2-one], for which the half-maximal inhibitory concentration (IC50) under setting [1] was 0.9 nM. `CC(C)n1cnc2cc(-c3ccc4c(c3)N([C@H]3C[C@@H](N5CC6CC6C5)C3)C(=O)C4(C)C)nc(Nc3ccncc3F)c21` (stereo partly drawn) [Example 61]: the 50% inhibitory concentration (IC50) under setting [1] came out at 0.8 nM. With `CC(C)n1cnc2cc(-c3ccc4c(c3)N([C@H]3C[C@@H](N5CC6CCC(C6)C5)C3)C(=O)C43CCN(C(=O)C4CCO4)CC3)nc(Nc3ccncc3F)c21` (stereo partly drawn) [Example 125], where the note is “geometric mean”, the half-maximal inhibitory concentration (IC50) came out at 0.04 nM. In the case of `Cc1cnc(Nc2nc(-c3ccc4c(c3)N([C@H]3C[C@@H](N5CCCCC5)C3)C(=O)C4(C)C)cc3ncn(C(C)C)c23)cc1C(=O)NC1(CF)CC1` [Example 195], the concentration for half-maximal inhibition (IC50) (geometric mean) was 6 nM.

As for `CC(C)n1cnc2cc(-c3ccc4c(c3)N([C@H]3C[C@@H](N5CCCC(C)(C)C5)C3)C(=O)C4(C)C)nc(Nc3ccc(=O)[nH]c3)c21` [Example 82], the IC50 under setting [1] was 0.1 nM. On to `COC(C)(C)CN(C)[C@H]1C[C@@H](N2C(=O)C3(CCN(C(C)=O)CC3)c3ccc(-c4cc5ncn(C(C)C)c5c(Nc5ccncc5F)n4)cc32)C1` [Example 179], for which the 50% inhibitory concentration (IC50) (geometric mean) amounted to 4.5 nM. `CC(C)n1cnc2cc(-c3ccc4c(c3)N([C@H]3C[C@@H](N5CCCCC5)C3)C(=O)C4(C)C)nc(Nc3ccnc(F)c3F)c21` [Example 94]: under setting [1], the concentration for half-maximal inhibition (IC50) came to 0.3 nM. As for `CC[C@@H](O)C(=O)N1CCC2(CC1)C(=O)N([C@H]1C[C@@H](N3CCCCC3)C1)c1cc(-c3cc4ncn(C(C)C)c4c(Nc4ccncc4F)n3)ccc12` [Example 114], the IC50 (geometric mean) is 0.4 nM.

With `CC(C)n1cnc2cc(-c3ccc4c(c3)N([C@H]3C[C@@H](N5CCC(C)(C)C5)C3)C(=O)C43CCN(C4COC4)CC3)nc(Nc3ccncc3F)c21` [Example 75], the 50% inhibitory concentration (IC50) under setting [1] is 0.4 nM. Still for that read-out and setting: as for `CC(C)n1cnc2cc(-c3ccc4c(c3)N([C@H]3C[C@@H](N5CCC(C)(C)C5)C3)C(=O)C43CCN(C(=O)[C@H]4CCCO4)CC3)nc(Nc3ccncc3F)c21` [Example 14], the figure is 0.2 nM. Turning to `CC(C)n1cnc2cc(-c3ccc4c(c3)N([C@H]3C[C@@H](N5CCCCC5)C3)C(=O)C43CCN(C(=O)C4CC4)CC3)nc(Nc3ccncc3F)c21` [Example 143], the IC50 (geometric mean) stood at 0.3 nM. Regarding `CC(C)n1cnc2cc(-c3ccc4c(c3)N([C@H]3C[C@@H](N5CCC(C)(C)C5)C3)C(=O)C43CCOCC3)nc(Nc3ccncc3F)c21` [Example 71], the IC50 under setting [1] amounted to 0.2 nM. Consider `CCn1cnc2cc(-c3ccc4c(c3)N([C@H]3C[C@@H](N5CC(C)(C)C5)C3)C(=O)C4(C)C)nc(Nc3ccncc3F)c21` [Example 85], for which the 50% inhibitory concentration (IC50) under setting [1] turned out to be 2.5 nM. Regarding `CC(=O)N1CCC2(CC1)C(=O)N([C@H]1C[C@@H](N3CCCCC3)C1)c1cc(-c3cc4ncn(C(C)C)c4c(Nc4ncc(F)cc4F)n3)ccc12` [Example 69], under setting [1], the IC50 came out at 5.6 nM. The same measure, in the same setting: as for `CC(C)n1cnc2cc(-c3ccc4c(c3)N([C@H]3C[C@@H](N5CCCCC5)C3)C(=O)C4(C)C)nc(Nc3c(F)cncc3F)c21` [Example 65], the figure is 0.7 nM; as for `CC(C)n1cnc2cc(-c3ccc4c(c3)N([C@H]3C[C@@H](N5CC[C@@H](F)C5)C3)C(=O)C43CCN(C4COC4)CC3)nc(Nc3ccncc3F)c21` [Example 42], 0.6 nM; as for `CC(C)n1cnc2cc(-c3ccc4c(c3)N([C@H]3C[C@@H](NCC(C)(C)F)C3)C(=O)C4(C)C)nc(Nc3ccncc3F)c21` [Example 64], 1.3 nM. On to `CC(C)n1cnc2cc(-c3ccc4c(c3)N([C@H]3C[C@@H](N5CCCCC5)C3)C(=O)C4(C)O)nc(Nc3ccnc(F)c3F)c21` (stereo partly drawn) [Example 101], for which, where the note is “geometric mean”, the IC50 worked out at 0.3 nM. In the case of `CC(C)n1cnc2cc(-c3ccc4c(c3)N([C@H]3C[C@@H](N5C[C@@H](O)C(C)(C)C5)C3)C(=O)C43CCN(C4COC4)CC3)nc(Nc3ccncc3F)c21` [Example 40], under setting [1], the half-maximal inhibitory concentration (IC50) came to 0.6 nM. Consider `CC(C)n1cnc2cc(-c3ccc4c(c3)N([C@H]3C[C@@H](N5CC(C)(C)C5)C3)C(=O)C43CCN(C4COC4)CC3)nc(Nc3ccncc3F)c21` [Example 176], for which the IC50 (geometric mean) was 0.8 nM. `CC[C@H](C)n1cnc2cc(-c3ccc4c(c3)N([C@H]3C[C@@H](N5CCC(C)(C)C5)C3)C(=O)C43CCN(C4COC4)CC3)nc(Nc3ccncc3F)c21` [Example 90]: under setting [1], the IC50 stood at 0.3 nM. `CC(C)n1cnc2cc(-c3ccc4c(c3)N([C@H]3C[C@@H](N5CC[C@@H](C)C5)C3)C(=O)C43CCN(C4COC4)CC3)nc(Nc3ccncc3F)c21` [Example 44]: the IC50 under setting [1] amounted to 1.1 nM. `CC(C)n1cnc2cc(-c3ccc4c(c3)N([C@H]3C[C@@H](N5CCCCC5)C3)C(=O)C43CCN(C(=O)C(C)(C)O)CC3)nc(Nc3ccncc3F)c21` [Example 3]: the IC50 under setting [1] was determined as 0.6 nM.

For the molecule `Cc1cc(Nc2nc(-c3ccc4c(c3)N([C@H]3C[C@@H](N5CCCCC5)C3)C(=O)C43CCN(C(=O)C4(C)COC4)CC3)cc3ncn(C(C)C)c23)c(F)cn1` [Example 129], the IC50 (geometric mean) worked out at 0.6 nM.

With `CC(C)n1cnc2cc(-c3ccc4c(c3)N([C@H]3C[C@@H](N5CC[C@H](C)C5)C3)C(=O)C43CCN(C4COC4)CC3)nc(Nc3ccncc3F)c21` [Example 47], the IC50 under setting [1] is 1.6 nM. For `CC(=O)N1CCC2(CC1)C(=O)N([C@H]1C[C@@H](N3CC4CCC(C4)C3)C1)c1cc(-c3cc4ncn(C(C)C)c4c(Nc4cc(C)ncc4F)n3)ccc12` [Example 166], the IC50 (geometric mean) turned out to be 0.1 nM. For `CC(C)n1cnc2cc(-c3ccc4c(c3)N([C@H]3C[C@@H](N5CCC(C)(C)C5)C3)C(=O)C43CCN(C(=O)C4COC4)CC3)nc(Nc3ccncc3F)c21` [Example 76], the concentration for half-maximal inhibition (IC50) under setting [1] came out at 0.5 nM.

Take `CC(=O)N1CCC2(CC1)C(=O)N([C@H]1C[C@@H](N3CCC(C)(C)C3)C1)c1cc(-c3cc4ncn(C(C)C)c4c(Nc4ccncc4F)n3)ccc12` [Example 29]: the half-maximal inhibitory concentration (IC50) under setting [1] was determined as 0.4 nM. Take `CC(C)n1cnc2cc(-c3ccc4c(c3)N([C@H]3C[C@@H](N5CCCC(C)(C)C5)C3)C(=O)C4(C)C)nc(Nc3ccc(=O)n(C)c3)c21` [Example 81]: the IC50 under setting [1] turned out to be 0.2 nM.

With `Cc1cc(Nc2nc(-c3ccc4c(c3)N([C@H]3C[C@@H](N5CCCCC5)C3)C(=O)C43CCN(C(=O)C(C)(C)CO)CC3)cc3ncn(C(C)C)c23)c(F)cn1` [Example 132], the IC50 (geometric mean) came out at 0.8 nM. For the molecule `CC(C)[C@@H](O)C(=O)N1CCC2(CC1)C(=O)N([C@H]1C[C@@H](N3CCC(C)(C)C3)C1)c1cc(-c3cc4ncn(C(C)C)c4c(Nc4ccncc4F)n3)ccc12` [Example 118], the IC50 (geometric mean) turned out to be 0.2 nM. Still for that read-out and setting: as for `CC(C)n1cnc2cc(-c3ccc4c(c3)N([C@H]3C[C@@H](N5CCC(C)(C)C5)C3)C(=O)C43CCN(C(=O)C4(C)COC4)CC3)nc(Nc3cc(Cl)ncc3F)c21` [Example 130], the figure is 1 nM.

With `CC(=O)N1CCC2(CC1)C(=O)N([C@H]1C[C@@H](N3CC4CCC(C3)O4)C1)c1cc(-c3cc4ncn(C(C)C)c4c(Nc4ccncc4F)n3)ccc12` [Example 34], the IC50 under setting [1] turned out to be 0.2 nM.

(Values after US11071730B2, “Substituted 6-azabenzimidazole compounds” (Gilead Sciences, Inc., priority 2018, dated 2021).)
